Our source for the IC50 values is patent US9944589B2, “Cycloproplyamine derivatives useful as inhibitors of histone demethylases KDM1A” (Istituto Europeo de Oncologia S.r.L., priority 2012, dated 2018).

Structures can show the parent of a compound that is named as a salt.

Test [1] addresses T1, human recombinant KDM1A (LSD1)/CoRest (Homo sapiens, UniProt O60341).
T1 construct: made in house; host or cells: E. coli
Briefly: Assay of enzyme inhibition of KDM1A (LSD1), Amplex UltraRed/peroxidase coupled. Type of test: biochemical. To be noted: 15 min preincubation, 4.5 μM mono-methylated H3-K4 peptide, range classes, read-out: IC50 [μM], KDM1A inhibition assay. The procedure, abridged:
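KDM1A/CoRest complex with inhibitor (e.g. 0–100 μM) and Amplex UltraRed/peroxidase preincubated 15 min at RT. Substrate: mono-methylated H3K4 21-mer peptide in 50 mM Tris pH 8, 0.05 mg/ml BSA, aerobic. IC50 from duplicates run twice, background-corrected.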

Test [2] relates to Acute promyelocytic leukemia NB4 cells. Briefly: Cell growth (CellTiter-Fluor cell viability assay). The class given is cell-based. The following applies: Homo sapiens, NB-4, 48 h, range classes, read-out: IC50 [μM], cell growth inhibitory assay. From the text: CellTiter-Flor® (Promega) is as a nonlytic, single-reagent-addition fluorescence assay that measures the relative number of living cells in a culture population after experimental manipulation. The CellTiter-Fluor™ Cell Viability Assay measures the conserved and constitutive protease activity within live cells and therefore acts as a marker for cell viability.
Acute promyelocytic leukemia NB4 cells, (obtained from the Deutsche Sammlung von Mikroorganismen and Zellkulturen) in exponential growth, were incubated for 48 h with different concentrations of the inhibitors. After 48 h a volume of CellTiter-Fluor® Reagent equal to one fifth of volume of cell culture medium was added. The content was mixed and incubates for at least 90 min at 37° C. degree to obtain a stable signal. The fluorescence was recorded using an excitation wavelength of 360 nm and an emission at 535 nm. The IC50 was calculated using GraphPad Software.

Take `CC[C@@]1(N)C[C@H]1c1cccc(NC(=O)c2cccc(Cl)c2)c1` (relative stereo) [Example A-80, N-[3-[trans-2-amino-2-ethyl-cyclopropyl]phenyl]-3-chloro-benzamide hydrochloride]: the half-maximal inhibitory concentration (IC50) (commonly the concentration that inhibits the measured activity by half) is 0.1 to 1 µM in test [1] and 10 to 50 µM in test [2].
As for `CC[C@@]1(N)C[C@H]1c1ccc(NC(=O)c2ccc(N3CCOC3=O)cc2)cc1` (relative stereo) [Example A-83, N-[4-[trans-2-amino-2-ethyl-cyclopropyl]phenyl]-4-(2-oxooxazolidin-3-yl)benzamide hydrochloride], the IC50 in test [1] was below 0.1 µM; in test [2], at most 10 µM.
For the compound `N[C@]1(c2ccccc2)C[C@H]1c1ccc(NC(=O)c2cccc(NC(=O)OCc3ccccc3)c2)cc1` (relative stereo) [Example A-84, benzyl N-[3-[(4-[trans-2-amino-2-phenyl-cyclopropyl]phenyl)carbamoyl]phenyl]carbamate 2,2,2-trifluoroacetic acid], the IC50 is below 0.1 µM in test [1] and 10 to 50 µM in test [2].
As to `N[C@]1(c2ccccc2)C[C@H]1c1ccc(NC(=O)c2ccc3ccccc3c2)cc1` (relative stereo) [Example A-85, N-[4-[trans-2-amino-2-phenyl-cyclopropyl]phenyl] naphthalene-2-carboxamide hydrochloride], the values for the IC50 in test [1] and in test [2] were below 0.1 µM and at most 10 µM, respectively.
Regarding `CC[C@@]1(N)C[C@H]1c1ccc(NC(=O)c2ccccc2)c(F)c1` (relative stereo) [Example A-86, N-[4-[trans-2-amino-2-ethyl-cyclopropyl]-2-fluoro-phenyl]benzamide hydrochloride], the IC50 in test [1] is below 0.1 µM; in test [2], 50 to 100 µM.
With `CC[C@@]1(N)C[C@H]1c1ccc(NC(=O)c2ccc(-c3ccccc3)cc2)c(F)c1` (relative stereo) [Example A-87, N-[4-[trans-2-amino-2-ethyl-cyclopropyl]-2-fluoro-phenyl]-4-phenyl-benzamide hydrochloride], the half-maximal inhibitory concentration (IC50) is below 0.1 µM in test [1] and 10 to 50 µM in test [2].
As to `CC[C@@]1(N)C[C@H]1c1ccc(NC(=O)c2ccc(N3CCOCC3)cc2)cc1` (relative stereo) [Example A-88, N-[4-[trans-2-amino-2-ethyl-cyclopropyl]phenyl]-4-morpholino-benzamide 2,2,2-trifluoroacetic acid], the IC50 in test [1] is below 0.1 µM; in test [2], 10 to 50 µM.
As for `N[C@]1(c2ccccc2)C[C@H]1c1ccc(NC(=O)c2ccc(-c3ccccc3)cc2)cc1` (relative stereo) [Example A-89, N-[4-[trans-2-amino-2-phenyl-cyclopropyl]phenyl]-4-phenyl-benzamide 2,2,2-trifluoroacetic acid], the 50% inhibitory concentration (IC50) in test [1] is below 0.1 µM; in test [2] it was at most 10 µM.
On to `N[C@]1(c2ccccc2)C[C@H]1c1ccc(NC(=O)c2cccc3ccccc23)cc1` (relative stereo) [Example A-90, N-[4-[trans-2-amino-2-phenyl-cyclopropyl]phenyl] naphthalene-1-carboxamide hydrochloride], for which the values for the 50% inhibitory concentration (IC50) in test [1] and in test [2] were below 0.1 µM and at most 10 µM, respectively.
Consider `CC[C@@]1(N)C[C@H]1c1cccc(NC(=O)c2ccc(-c3ccccc3)cc2)c1` (relative stereo) [Example A-91, N-[3-[trans-2-amino-2-ethyl-cyclopropyl]phenyl]-4-phenyl-benzamide hydrochloride], for which the concentration for half-maximal inhibition (IC50) in test [1] was 0.1 to 1 µM; in test [2], 10 to 50 µM.
On to `CC[C@@]1(N)C[C@H]1c1cccc(NC(=O)c2ccc3ccccc3c2)c1` (relative stereo) [Example A-92, N-[3-[trans-2-amino-2-ethyl-cyclopropyl]phenyl] naphthalene-2-carboxamide hydrochloride], for which the half-maximal inhibitory concentration (IC50) in test [1] fell in the range of 0.1 to 1 µM; in test [2], 10 to 50 µM.
Consider `CC[C@@]1(N)C[C@H]1c1ccc(NC(=O)c2ccc(NC(=O)OCc3ccccc3)cc2)c(F)c1` (relative stereo) [Example A-95, benzyl N-[4-[[4-[trans-2-amino-2-ethyl-cyclopropyl]-2-fluoro-phenyl]carbamoyl]phenyl]carbamate hydrochloride], for which the IC50 was 0.1 to 1 µM in test [1] and at most 10 µM in test [2].
The like results for `CC[C@@]1(N)C[C@H]1c1ccc(NC(=O)c2ccc(N3CCN(C)CC3)cc2)cc1` (relative stereo) [Example A-97, N-[4-[trans-2-amino-2-ethyl-cyclopropyl]phenyl]-4-(4-methylpiperazin-1-yl)benzamide 2,2,2-trifluoroacetic acid] were, in that order, below 0.1 µM and 10 to 50 µM.
In the case of `CC[C@@]1(N)C[C@H]1c1ccc(NC(=O)c2ccc(N3CCOCC3)c(NC(=O)OCc3ccccc3)c2)cc1` (relative stereo) [Example A-99, benzyl N-[5-[[4-[trans-2-amino-2-ethyl-cyclopropyl]phenyl]carbamoyl]-2-morpholino-phenyl]carbamate 2,2,2-trifluoroacetic acid], the results for the IC50 in test [1] and in test [2] were below 0.1 µM and at most 10 µM, respectively.
In the case of `CC[C@@]1(N)C[C@H]1c1ccc(NC(=O)c2ccncc2)cc1` (relative stereo) [Example A-101, N-[4-(trans-2-amino-2-ethyl-cyclopropyl)phenyl] pyridine-4-carboxamide dihydrochloride], the IC50 is below 0.1 µM in test [1] and 10 to 50 µM in test [2].
Turning to `N[C@]1(CCc2ccccc2)C[C@H]1c1ccc(NC(=O)c2ccc(-c3ccccc3)cc2)cc1` (relative stereo) [Example A-113, N-[4-(trans-2-amino-2-phenethyl-cyclopropyl)phenyl]-4-phenyl-benzamide hydrochloride], the values for the half-maximal inhibitory concentration (IC50) in test [1] and in test [2] were 0.1 to 1 µM and at most 10 µM, respectively.
For the compound `CN1CCC(c2ccc(C(=O)Nc3ccc([C@@H]4C[C@]4(N)CCc4ccccc4)cc3)cc2)CC1` (relative stereo) [Example A-115, N-[4-(trans-2-amino-2-phenethyl-cyclopropyl)phenyl]-4-(1-methyl-4-piperidyl)benzamide dihydrochloride], the IC50 was below 0.1 µM in test [1] and at most 10 µM in test [2].
Take `CC[C@@]1(N)C[C@H]1c1ccc(NC(=O)c2ccc(N3CCN(C)CC3)c(NC(=O)OCc3ccccc3)c2)cc1` (relative stereo) [Example A-117, benzyl N-[5-[[4-[trans-2-amino-2-ethyl-cyclopropyl]phenyl]carbamoyl]-2-(4-methylpiperazin-1-yl)phenyl] carbamate 2,2,2-trifluoroacetic acid]: the concentration for half-maximal inhibition (IC50) in test [1] was 0.1 to 1 µM; in test [2], at most 10 µM.
In the case of `N[C@]1(CCc2ccccc2)C[C@H]1c1ccc(NC(=O)c2cccc(N3CCOC3=O)c2)cc1` (relative stereo) [Example A-118, N-[4-(trans-2-amino-2-phenethyl-cyclopropyl)phenyl]-3-(2-oxooxazolidin-3-yl)benzamide 2,2,2-trifluoroacetic acid], the half-inhibitory concentration (IC50) in test [1] was below 0.1 µM; in test [2] it was at most 10 µM.
The like results for `CC[C@@]1(N)C[C@H]1c1ccc(-n2cc(-c3cccc(NC(=O)OCc4ccccc4)c3)nn2)cc1` (relative stereo) [Example A-121, Benzyl N-[3-[1-[4-[trans-2-amino-2-ethyl-cyclopropyl]phenyl]triazol-4-yl]phenyl]carbamate hydrochloride] were, in that order, 0.1 to 1 µM and 50 to 100 µM.
